From ChEMBL document CHEMBL1201862, “PubChem BioAssay data set” (2004)
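Method: 48-hour compound exposure of cells in 96-well plates, five concentrations, linear interpolation of endpoints. GI50 marks 50% less growth.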 Calls of active or inactive are those of the source. Cut-off read from the data, not from the text of the source: active = GI50 up to about 1.1 µM and inactive = higher.

Experiments:
Experiment in all cases: NCI tumour cell line growth inhibition, 48 h
TK-10 = test system: TK-10
MOLT-4 = test system: MOLT-4
RXF 393 = test system: RXF 393
NCI-H23 = test system: NCI-H23
A498 = test system: A498
IGROV-1 = test system: IGROV-1
SF-295 = test system: SF-295
HCC 2998 = test system: HCC 2998
SR = test system: SR
COLO 205 = test system: COLO 205
SNB-75 = test system: SNB-75
OVCAR-5 = test system: OVCAR-5
OVCAR-8 = test system: OVCAR-8
SN12C = test system: SN12C
SF-539 = test system: SF-539
K562 = test system: K562
RPMI-8226 = test system: RPMI-8226
HOP-92 = test system: HOP-92

Measured: GI50

COc1cc(/C=C(\C)c2ccc3c(c2)OCO3)cc(OC)c1OC
inactive: TK-10 47 µM | MOLT-4 16.7 µM | RXF 393 34.1 µM | NCI-H23 37.5 µM | A498 17.6 µM | IGROV-1 25.1 µM | SF-295 25.2 µM | HCC 2998 25.5 µM | SR 19.3 µM | COLO 205 18.5 µM | SNB-75 5 µM | OVCAR-5 55.3 µM | OVCAR-8 29.8 µM | SN12C 26.2 µM | SF-539 14.1 µM | K562 10.4 µM

O=C(Cc1ccccc1)NS(=O)(=O)c1ccccc1
inactive: TK-10 > 100 µM | MOLT-4 > 100 µM | RXF 393 > 100 µM | NCI-H23 > 100 µM | A498 > 100 µM | RPMI-8226 > 100 µM | IGROV-1 > 100 µM | SF-295 > 100 µM | HCC 2998 > 100 µM | SR > 100 µM | COLO 205 > 100 µM | HOP-92 > 100 µM | SNB-75 > 100 µM | OVCAR-5 > 100 µM | OVCAR-8 > 100 µM | SN12C > 100 µM | SF-539 > 100 µM | K562 > 100 µM

CCc1cccc(C)c1NC(=O)CC1C(=O)Nc2ccccc2S1(=O)=O (stereo not given)
inactive: TK-10 29.3 µM | MOLT-4 14.1 µM | RXF 393 15.1 µM | NCI-H23 15.7 µM | A498 21 µM | RPMI-8226 13.9 µM | IGROV-1 13.4 µM | SF-295 26.2 µM | HCC 2998 16.8 µM | SR 5.65 µM | HOP-92 12 µM | SNB-75 16 µM | OVCAR-5 23.6 µM | OVCAR-8 19.8 µM | SN12C 20.8 µM | SF-539 11 µM | K562 2.92 µM

CC1SC2=NC3=C(c4ccccc4C3=O)C(c3ccc(F)cc3)N2C1=O (stereo not given)
inactive: TK-10 > 100 µM | MOLT-4 > 100 µM | NCI-H23 > 100 µM | A498 > 100 µM | RPMI-8226 65.3 µM | IGROV-1 > 100 µM | SF-295 > 100 µM | HCC 2998 > 100 µM | COLO 205 > 100 µM | HOP-92 50.7 µM | SNB-75 35.6 µM | OVCAR-5 > 100 µM | OVCAR-8 > 100 µM | SN12C 63.7 µM | SF-539 > 100 µM | K562 > 100 µM

COCC(C)(C)/N=C/N1Cc2cc3ccccc3nc2C1
inactive: TK-10 > 100 µM | MOLT-4 > 100 µM | RXF 393 > 100 µM | NCI-H23 > 100 µM | RPMI-8226 > 100 µM | IGROV-1 > 100 µM | SF-295 > 100 µM | SR > 100 µM | COLO 205 > 100 µM | HOP-92 > 100 µM | SNB-75 > 100 µM | OVCAR-8 > 100 µM | SN12C > 100 µM | SF-539 > 100 µM | K562 > 100 µM

Nc1ccc(C(=O)N/C(=C\c2ccc3c(c2)OCO3)c2nc3c(O)nc(S)nc3[nH]2)cc1
inactive: TK-10 > 100 µM | MOLT-4 > 100 µM | RXF 393 33.8 µM | NCI-H23 > 100 µM | IGROV-1 > 100 µM | SF-295 > 100 µM | HCC 2998 > 100 µM | SR > 100 µM | COLO 205 > 100 µM | HOP-92 75.5 µM | OVCAR-5 > 100 µM | OVCAR-8 > 100 µM | SN12C > 100 µM | SF-539 > 100 µM | K562 > 100 µM

Nc1ccccc1[S+]([O-])c1ccccc1 (stereo not given)
inactive: TK-10 > 100 µM | MOLT-4 > 100 µM | RXF 393 > 100 µM | NCI-H23 > 100 µM | A498 > 100 µM | RPMI-8226 > 100 µM | IGROV-1 > 100 µM | SF-295 > 100 µM | HCC 2998 > 100 µM | COLO 205 > 100 µM | HOP-92 39.2 µM | SNB-75 > 100 µM | OVCAR-5 > 100 µM | OVCAR-8 > 100 µM | SN12C > 100 µM | SF-539 > 100 µM | K562 > 100 µM

C[C@@H]1C2=CC[C@@]3(C)C(CCC3[C@H](C)[C@H]3C[C@@]4(C)O[C@@](c5cccnc5)(O3)OC4(C)C)[C@@H]2C2OC2[C@@]12CCC(=O)O2 (stereo not given in full)
inactive: TK-10 44.8 µM | NCI-H23 34.2 µM | A498 > 100 µM | RPMI-8226 29.2 µM | IGROV-1 76.6 µM | SF-295 31.2 µM | HCC 2998 37 µM | SR 9.4 µM | COLO 205 30 µM | HOP-92 26.8 µM | SNB-75 34 µM | OVCAR-5 57.4 µM | OVCAR-8 32.4 µM | SN12C 33 µM | SF-539 52.2 µM | K562 27.5 µM

CC(=O)N(C(C)=O)c1c(N)n(C)c(=O)[nH]c1=O
inactive: MOLT-4 > 100 µM | RXF 393 > 100 µM | NCI-H23 > 100 µM | A498 > 100 µM | RPMI-8226 > 100 µM | IGROV-1 > 100 µM | SF-295 > 100 µM | HCC 2998 > 100 µM | COLO 205 > 100 µM | HOP-92 > 100 µM | OVCAR-5 > 100 µM | OVCAR-8 > 100 µM | SN12C > 100 µM | SF-539 > 100 µM | K562 > 100 µM

OC1=CN=COc2ccccc21
inactive: TK-10 > 100 µM | MOLT-4 > 100 µM | RXF 393 > 100 µM | NCI-H23 > 100 µM | A498 > 100 µM | RPMI-8226 > 100 µM | IGROV-1 > 100 µM | SF-295 > 100 µM | HCC 2998 > 100 µM | COLO 205 > 100 µM | HOP-92 > 100 µM | SNB-75 32.3 µM | OVCAR-8 > 100 µM | SN12C > 100 µM | SF-539 > 100 µM | K562 > 100 µM

CCCCCCCCCCCCCP(=O)(NCC(N)=O)OCC (stereo not given)
inactive: TK-10 18.7 µM | RXF 393 22.5 µM | NCI-H23 24.3 µM | A498 35.6 µM | IGROV-1 18.5 µM | SF-295 17.3 µM | HCC 2998 20.2 µM | COLO 205 17.2 µM | HOP-92 17 µM | SNB-75 5.31 µM | OVCAR-5 19.5 µM | OVCAR-8 21.4 µM | SN12C 18.3 µM | SF-539 17.4 µM

CCC(C)CC(C)CC(C)/C=C(\C)C1=C(C)CC(C)(O)O1 (stereo not given)
inactive: TK-10 > 100 µM | MOLT-4 35.7 µM | RXF 393 88.9 µM | NCI-H23 76.4 µM | A498 > 100 µM | RPMI-8226 24.4 µM | IGROV-1 > 100 µM | HCC 2998 > 100 µM | COLO 205 > 100 µM | HOP-92 18.3 µM | SNB-75 > 100 µM | OVCAR-8 69.7 µM | SN12C 90.4 µM | SF-539 > 100 µM | K562 46.7 µM

CCOC(=O)C(C)(C)Oc1ccc2c(-c3ccc(Cl)cc3)cc(=O)oc2c1
inactive: TK-10 > 100 µM | MOLT-4 > 100 µM | RXF 393 > 100 µM | NCI-H23 > 100 µM | A498 > 100 µM | RPMI-8226 > 100 µM | IGROV-1 > 100 µM | SF-295 > 100 µM | HCC 2998 > 100 µM | SR > 100 µM | COLO 205 > 100 µM | SNB-75 19.3 µM | OVCAR-8 > 100 µM | SN12C > 100 µM | SF-539 > 100 µM | K562 > 100 µM

Cc1cc(Cl)ccc1NC1=NC(=O)C(CC(=O)Nc2ccc([N+](=O)[O-])cc2[N+](=O)[O-])S1 (stereo not given)
inactive: TK-10 48.1 µM | MOLT-4 19.4 µM | NCI-H23 20.9 µM | A498 23.4 µM | RPMI-8226 17.9 µM | IGROV-1 32.3 µM | SF-295 22.9 µM | HCC 2998 39.6 µM | COLO 205 36.6 µM | SNB-75 14.5 µM | OVCAR-5 24.2 µM | OVCAR-8 34.1 µM | SN12C 26.9 µM | SF-539 24.3 µM | K562 27.6 µM

Clc1c(C(Cl)(Cl)Cl)nsc1N1CCCCC1
inactive: TK-10 31.6 µM | MOLT-4 15.2 µM | RXF 393 16.8 µM | NCI-H23 14 µM | A498 20 µM | RPMI-8226 12.6 µM | IGROV-1 36 µM | SF-295 22.3 µM | HCC 2998 22.2 µM | SR 16.1 µM | COLO 205 16.5 µM | SNB-75 29 µM | OVCAR-5 33.7 µM | OVCAR-8 27.4 µM | SN12C 28 µM | SF-539 25.3 µM | K562 19.1 µM

C/C(=C\c1ccccc1)C(=O)c1c(C)cc(C)cc1C
inactive: TK-10 > 100 µM | MOLT-4 > 100 µM | RXF 393 > 100 µM | NCI-H23 > 100 µM | RPMI-8226 > 100 µM | IGROV-1 > 100 µM | SF-295 > 100 µM | SR > 100 µM | COLO 205 > 100 µM | HOP-92 > 100 µM | SNB-75 > 100 µM | OVCAR-8 > 100 µM | SN12C > 100 µM | SF-539 > 100 µM | K562 > 100 µM

COC1C2c3cc4c(cc3CC(C#N)(c3ccccc32)N1C(=O)c1ccccc1)OCO4 (stereo not given)
inactive: TK-10 > 100 µM | MOLT-4 97.5 µM | RXF 393 32.2 µM | NCI-H23 > 100 µM | RPMI-8226 21 µM | IGROV-1 > 100 µM | SF-295 > 100 µM | HCC 2998 > 100 µM | SR 54.7 µM | COLO 205 > 100 µM | HOP-92 > 100 µM | SNB-75 > 100 µM | OVCAR-5 > 100 µM | OVCAR-8 > 100 µM | SN12C > 100 µM | SF-539 > 100 µM | K562 54.6 µM
